According to patent US20150352131A1, “Compositions and Methods for the Prevention and Treatment of Osteolysis and Osteoporosis” (RHODE ISLAND HOSPITAL, priority 2013, published 2015):
Entries after “also recorded” stand apart in the source; their conditions may differ. Where two headings read alike, the source gives them in different places.

Assays:
[1] = orthopedic implant; cited from earlier work
[2] = tested on: BM-derived pre-osteoclast cultures (wild type bone marrow cells); test: TRAP staining of multinucleated osteoclasts in ex vivo osteoclast culture; assay type: cell-based, mice; settings: FIG. 5: NSC-87877 50 nM, Aldronates 25 nM, or combination
Experimental: Whole bone marrow (BM) was flushed from the explanted femurs and tibiae of euthanized mice with DMEM (Invitrogen, N.Y), and centrifuged at 1,500 rpm for 5 minutes. The pelletized cells were resuspended in red blood cell (RBC) lysis buffer, re-centrifuged at 1,500 rpm for 5 minutes, and then cultured in macrophage medium (DMEM supplemented with 10% FBS, 1% penicillin/streptomycin, and 10 ng/mL M-CSF) at 37° C. and 5% CO2 for 3 days (Tanaka S, et al. (1993) J Clin Invest 91(1):257-63) in either 100 mm tissue culture dishes, 4-well or 8-well chamber slides, or 48-well or 96-well tissue culture plates. The medium was changed every other day. To induce osteoclastogenic differentiation, BM cells cultured for 3 days in macrophage medium were further cultured for 5-7 days in osteoclast differentiation medium (DMEM supplemented with 10% FCS, 10 ng/mL M-CSF, and 100 ng/mL RANKL) (McHugh K P, et al. (2000) J Clin Invest 105(4):433-40; Zou W, et al. (2008) Mol Cell 31(3):422-31). These BM-derived osteoclasts were primarily used for the various assays in this study. […] TRAP^+ multinucleated osteoclasts (>3 nuclei) were quantified with the use of a Nikon digital microscope. Osteoclast-mediated bone resorptive activity was quantified using the pit assay (Xu D, et al. (2004) Biochemical Journal 383(Pt 2):219-225). […]

osteoclasts = test: Pit assay, osteoclast-mediated bone resorption on dentin slices; assay type: cell-based, mice
Text: TRAP staining was used to identify multinucleated osteoclasts in osteoclastogenic cell cultures or tibia section. Briefly, tibia from control and Shp2 mutant mice were fixed in 4% paraformaldehyde overnight and then decalcified in EDTA solution (14%) till bone tissue was soft. The specimens were then dehydrated according standard procedures and embedded for sectioning. TRAP^+ multinucleated osteoclasts (>3 nuclei) were quantified with the use of a Nikon digital microscope. Osteoclast-mediated bone resorptive activity was quantified using the pit assay (Xu D, et al. (2004) Biochemical Journal 383(Pt 2):219-225). Ethanol-sterilized slices of bovine bone were disposed in individual wells of a 48 well/plate with 1 mL osteoclast culture medium containing 2.5×10^4 BM macrophages (BMM) per well. After 8 to 10 days, all cellular components were removed from bone slices with a brief (10 minute) treatment with 5% sodium hypochlorite. […] The effect of Shp2 inhibition on osteoclast-mediated bone resorption was also studied in order to further test whether pharmacological inhibition of Shp2 could serve as a treatment modality. BMM were cultured on dentin slices in osteoclast medium and in the presence or absence of Shp2 inhibitor NSC-87877 (50 μM) (FIGS. 10A-B).

[3] = tested on: osteoclastogenic genes c-Fos, Nfatc1, MMP9, Trap, and Ctsk in bone marrow derived macrophages (BMM); test: qRT-PCR of osteoclastogenic gene expression in BMM induced by polyethylene or titanium particles; assay type: cell-based, mice; settings: BMM with PeP or TiP, NSC87877 50 uM, 5 days of culture, normalized to GAPDH
Experimental: The average size of PeP and TiP is about […] in diameter (FIGS. 8A-B), within the range of orthopedic implant debris size; these particles can be efficiently engulfed by BMM and trigger their osteoclastogenic differentiation (FIGS. 8C-D). 5×10^5 BMM were cultured in BMM medium containing about 2×10^6 of PeP or TiP in the presence or absence of Shp2 inhibitor NSC87877 (50 uM). BMM cultured in osteoclast media (DMEM supplemented with 10% FCS, 10 ng/mL M-CSF, and 100 ng/mL RANKL) were used as a positive control. Total RNA was extracted from BMM after 5 days of culture using RNeasy mini kit (Qiagen, Valencia, Calif.). cDNA was synthesized using 1 μg total RNA with iSCRIPT™ cDNA Synthesis Kit (Bio-Rad, Hercules, Calif.) and q-PCR was performed with RT2SYBR® Green qPCR kit (Bio-Rad) on a CFX384 real-time PCR machine. Osteoclastogenic gene expressions in BMM were measured and normalized to Glyceraldehyde 3-phosphate dehydrogenase (GAPDH); their levels were then compared between NSC87877 treated and untreated groups.

prostate cancer = settings: delivered as loaded nanoparticles conjugated to T cells; cited from earlier work
[4] = mice given NSC-87877, cited from earlier work

Compound	bone ongrowth and shear strength [1]	number of osteoclasts (formation of TRAP+ multinucleated osteoclasts) [2]	osteoclast-mediated bone resorption (pits formed on dentin slices) (osteoclasts; BMM from wild type mice in osteoclast medium, NSC-87877 50 μM, 10 days)	ability to resorb bone matrix (pits on dentin slices) (osteoclasts; co-cultured 10 days on dentin slices, FIG. 5: NSC-87877 50 nM, Aldronates 25 nM, or combination)	expression of osteoclastogenic marker genes [3]	tumor burden (prostate cancer)	toxicity in vivo (death versus control-treated or untreated mice) [4]	toxicity in vivo (death versus control-treated or untreated mice) ([4]; listed as NSC 87877)
NCCCC(O)(P(=O)(O)O)P(=O)(O)O [Alendronate]	increase							
O=S(=O)(O)c1ccc2cc(/N=N/c3cc(S(=O)(=O)O)c4cccnc4c3O)ccc2c1 [NSC87877]		inhibited	formed only a few small pits; also recorded: markedly reduced	inhibited	significantly inhibited	effective in reducing tumor burden	did not die significantly sooner	lack of toxicity
